In US5780472A, “Piperazine derivatives and methods for the preparation thereof and compositions containing the same” (Samjin Pharmaceuticazl Co., Ltd., priority 1995, dated 1998):
Values after ≈ are worked out from the molar mass of the structure shown. Structures can show the parent of a compound that is named as a salt.

Columns and labels:
[1] = test system: 5 kinds of human solid cancer cell lines; assay: In vitro antitumor activity against 5 human solid cancer cell lines compared with cisplatin (SRB assay); assay type: cell-based; conditions: in words
Procedure: Antitumor activities of the compounds of present invention were tested. Antitumor activities of compounds of the present invention were tested in vitro against 5 kinds of human tumor cell lines and 2 kinds of leukemia tumor cell lines. The method of in vitro test is as follows.
B. Method of test(SRB Assay Method)
a. Human solid tumor cell lines, […](non-small lung cell), SKMEL-2(melanoma), HCT-15(colon), SKOV-3(ovarian), XF-498(CNS) were cultured at 37° C., in 5% CO2 incubater using the RPMI 1640 media containing 10% FBS, while they were transfer-cultured successively once or twice per week. Cell cultures were dissolved into the solution of 0.25% trypsin and 3 mM CDTA PBS(-) and then cells were separated from media which the cells were sticked on.
b. 5×10^3 -2×10^4 cells were added into each well of 96-well plate and cultured in 5% CO2 incubater, at 37° C., for 24 hours.
c. Each sample drugs was dissolved in a small quantity of DMSO, and diluted to concentrations prescribed in experiment with media, and then the final concentration of DMSO was controlled below 0.5%.
d. A medium of each well cultured for 24 hours as above b., was removed by aspiration. 200 μl of drug samples prepared in c. was added into each well and the wells were cultured for 48 hours. Tz(time zero) plates were collected at the point of time drugs were added.
e. After Tz plates and plates were treated with cell fixing by TCA of SRB assay method, staining of 0.4% SRB solution, washing with 1% acetic acid, OD values were measured at 520 nm, following elution of dye with 10 mM Tris solution.
e. If T≥Tz, cellular response function was calculated with 100×(T-Tz)/(C-Tz), and if T<Tz, with 100×(T-Tz)/Tz.

[2] = test system: L1210 and P388 mouse cancer cells; assay: In vitro antitumor activity against L1210 and P388 compared with mitomycin C (dye exclusion assay); assay type: cell-based; conditions: in words
Procedure: (§1) B. Method of Experiment(Dye Exclusion Assay)
1) L-1210 and P388 cells that were cultured in RPMI 1640 media containing 10% FBS were regulated as the cell concentration of 1×10^6 cells/ml.
(§2) 2) Sample drugs diluted with log dose were added into the cells, and it were cultured at 37° C., for 48 hours, in […] incubater, and then viable cell number was measured, Viable cell number was measured with dye exclusion test using trypan blue.
3) The concentration of sample compounds of 50% cell growth inhibition compared with standard group was determined as IC50.

B16 Melanoma = assay: In vivo antitumor activities against mouse solid tumor, B16 melanoma; conditions: for T/C (%) Etc.: days 1, 5, 9, median survival time; for antitumor activities in B16 mouse melanoma: in words
Procedure: BDF1 mouse was used in experiment while being successively transfer cultured in C57BL/6 mice by s.c.
1) After 1 g of tumor was added into cold balanced salt solution up to be 10 ml, it was homogenized (10:1,brei).
2) 0.5 ml Brei of the above 1) were grafted into each BDFI mouse by i.p.
3) Median survival time was measured, and the activity was determined in such a manner that if T/C was over 125%, it presented moderate activity, while if it is over 150%, it had significant activity.
* Experimental Conditions for Mouse B16 Melanoma.
(§3) Animal: BDFI mouse (8 mice/group)
Inoculum size: 10^5 cells/mouse
(§4) Treatment time: days 1, 5, 9
(§5) Parameter: median survival time

ICR mice = assay: Acute toxicity test (LD50), Litchfield-Wilcoxon method; assay type: in vivo, mouse; design: unit not given here; conditions: male ICR mice, 14 days
[3] = test system: L1210 (mouse leukemia cell); assay: In vitro antitumor effects against animal leukemia cells (dye exclusion assay), L1210; assay type: cell-based; conditions: 50% cell growth inhibition, 37° C., trypan blue; for IC50: Mus musculus, L1210, 48 h, read-out: ED50 (the source's name); for ED50: 48 hours, hydrochloride, 2880 min
Procedure: L1210(mouse leukemia cell)
as §1, §2

[4] = test system: P388 (mouse lymphoid neoplasma cell); assay: In vitro antitumor effects against animal leukemia cells (dye exclusion assay), P388; assay type: cell-based; conditions: 50% cell growth inhibition, 37° C., trypan blue; for IC50: Mus musculus, P388, 48 h, read-out: ED50 (the source's name); for ED50: 48 hours, 2880 min
Procedure: P388 (mouse lymphoid neoplasma cell)
as §1, §2

[5] = test system: mouse leukemia P388 cells; assay: In vivo antitumor effects against mouse leukemia P388 cells; conditions: for T/C (%) etc.: days 1, 5, 9, median survival time; for antitumor effect in P388 mice: in words
Procedure: 1) Leukemia P388 cells being transfer-cultured succesively in DBA/2 mouse, were grafted i.p. into each mouse of a group comprising 8 mice of 6 week old BDFI mouse as the dose of 1×10^6 cells/0.1 ml.
2) Sample drugs were dissolved in PBS or suspended in 0.5% Tween 80, and then injected into abdominal cavity of mouse at each prescribed concentration on days 1, 5, 9, respectively.
3) With observation every day, survival times of tested mice were measured. Antitumor activities was determined in such a manner that the increasing ratio(T/C %) of average survival days of drug-treated groups compared with the control group was calculated using the mean survival times of each tested groups.
* Experimental Conditions for Mouse P388
as §3
Inoculum size: 10^6 cells/mouse
as §4, §5

| SMILES | antitumor activities compared with cisplatin [1] | antitumor activities compared with mitomycin C [2] | T/C (%) Etc. (B16 Melanoma; Dose 50 (unit not given) i.p.) [%] | T/C (%) Etc. (B16 Melanoma; Dose 100 (unit not given) i.p.) [%] | T/C (%) Etc. (B16 Melanoma; Dose 200 (unit not given) i.p.) [%] | antitumor activities in B16 mouse melanoma (B16 Melanoma) | LD50 (ICR mice; i.p.) | LD50 (ICR mice; p.o.) | IC50 [3] [µg/mL] | IC50 [4] [µg/mL] | T/C (%) etc. ([5]; 50 mg/kg i.p.) [%] | T/C (%) etc. ([5]; 100 mg/kg i.p.) [%] | antitumor effect in P388 mice [5] | ED50 [3] [µg/mL] | ED50 ([4]; hydrochloride) [µg/mL] | ED50 [4] [µg/mL] |
| --- | --- | --- | --- | --- | --- | --- | --- | --- | --- | --- | --- | --- | --- | --- | --- | --- |
| CCc1cc(NC(=O)N2CCN(c3cc(OC)cc(OC)c3)CC2)c(OC)nc1C [Example 6, 1-[(5-ethyl-2-methoxy-6-methylpyridin-3-yl)aminocarbonyl]-4-(3,5-dimethoxyphenyl)piperazine] | superior antitumor activities to those of cisplatin | same or more excellent antitumor activities | 127.3 | 124.2 | 139.4 | significant antitumor activities | 248.5 | > 622 | 0.6 (≈ 1.45 µM) | 0.3 (≈ 0.724 µM) | 133.3 | 183.3 | significant antitumor effect |  |  |  |
| CCc1cc(NC(=O)N2CCN(c3ccccc3OC)CC2)c(OC)nc1C [Example 148, 1-[(5-ethyl-2-methoxy-6-methylpyridin-3-yl)aminocarbonyl]-4-[(2-methoxyphenyl)piperazine-2-yl]piperazine salt of hydrochloride] |  | same or more excellent antitumor activities |  |  |  |  | 425.3 |  |  |  |  |  |  | 1.5 | 1.3 |  |
| CCc1cc(NC(=O)N2CCN(c3cc(C)cc(C)c3)CC2)c(OC)nc1C [Example 29, 1-[(5-ethyl-2-methoxy-6-methylpyrdin-3-yl)aminocarbonyl]-4-(3,5-dimethylphenyl)piperazine] | superior antitumor activities to those of cisplatin | same or more excellent antitumor activities |  |  |  |  |  |  | 0.4 (≈ 1.05 µM) | 0.5 (≈ 1.31 µM) | 136.4 | 190.9 | significant antitumor effect |  |  |  |
| CCc1cc(NC(=O)N2CCN(c3ccccc3OC)CC2)c(OC)nc1C [Example 1, 1-[(5-ethyl-2-methoxy-6-methylpyridin-3-yl)aminocarbonyl]-4-(2-methoxyphenyl)piperazine] | superior antitumor activities to those of cisplatin |  |  |  |  |  |  |  | 1.6 (≈ 4.16 µM) |  | 109.1 | 134.6 | significant antitumor effect |  |  | 0.6 (≈ 1.56 µM) |
| CCc1cc(NC(=O)N2CCN(c3cccc(Cl)c3)CC2)c(OC)nc1C [Example 149, 1-[(5-ethyl-2-methoxy-6-methylpyridin-3-yl)aminocarbonyl]-4-(3-chlorophenyl)piperazine salt of hydrochloride] | superior antitumor activities to those of cisplatin | same or more excellent antitumor activities |  |  |  |  | 410.5 |  |  |  |  |  |  | 0.9 |  |  |
| COc1cc(OC)cc(N2CCN(C(=O)Nc3cc(C)c(C)nc3OC)CC2)c1 [Example 118, 1-[(5,6-dimethyl-2-methoxypyridin-3-yl)aminocarbonyl]-4-(3,5-dimethoxyphenyl)piperazine] | superior antitumor activities to those of cisplatin | same or more excellent antitumor activities |  |  |  |  | 182.8 | 571.8 | 0.06 (≈ 0.15 µM) | 0.06 (≈ 0.15 µM) |  |  |  |  |  |  |
| CCc1cc(NC(=O)N2CCN(c3cccc(Cl)c3)CC2)c(OC)nc1C [Example 16, 1-[(5-ethyl-2-methoxy-6-methylpyridin-3-yl)aminocarbonyl]-4-(3-chlorophenyl)piperazine] |  |  | 115.2 | 127.3 | 118.2 | significant antitumor activities |  |  | 1.8 (≈ 4.63 µM) | 1.6 (≈ 4.11 µM) | 113.6 | 131.8 | significant antitumor effect |  |  |  |
| COc1ccccc1N1CCN(C(=O)Nc2cc(C)c(C)nc2OC)CC1 [Example 108] | superior antitumor activities to those of cisplatin | same or more excellent antitumor activities |  |  |  |  | > 2,000 | > 3,110 | 0.8 (≈ 2.16 µM) | 0.9 (≈ 2.43 µM) |  |  |  |  |  |  |
| CCc1cc(NC(=O)N2CCN(c3cc(C)ccc3OC)CC2)c(OC)nc1C [Example 47, 1-[(5-ethyl-2-methoxy-6-methylpyridin-3-yl)aminocarbonyl]-4-(2-methoxy-5-methylphenyl)piperazine] | superior antitumor activities to those of cisplatin | same or more excellent antitumor activities |  |  |  |  |  |  | 0.3 (≈ 0.753 µM) | 0.3 (≈ 0.753 µM) |  |  |  |  |  |  |
